# Patent publication US10610537B2, “Methods of producing sialooligosaccharides and uses thereof” (MASAYOSHI LTD., priority 2016, dated 2020)
# Tests used:
# IGF-1 = assay: Ability to promote the production of insulin-like growth factor-1 (IGF-1) in mice; assay type: in vivo; details: mice (n=5), in drinking water, 5 mg/kg weight/day, 3 weeks, ELISA; untreated control 0.03
# Protocol: Each of the test substances produced in Example 1 and the reference standard of sialic acid (N-acetylneuraminic acid produced by Wako Pure Chemical Industries, Ltd. and having a product number of 011-26173) was dissolved in drinking water, and after adjustment of their concentrations, the individual solutions were administered to mice (n=5); the test substances were administered at 5 mg/kg weight/day. After rearing for 3 weeks, the concentration of IGF-1 in peripheral blood was examined by ELISA method.
# NIH3T3 cells = assay: Cell-proliferative activity, NIH3T3 cells (MTT assay method, Cell Counting Kit-8); assay type: cell-based; details: for Cell proliferation rate: 24 hours, no addition taken as 100
# Protocol: NIH3T3 cells were cultured in a 96-well microplate to give a cell density of 10^5 cells/well, and solutions of concentration-adjusted test substance 1 and reference standard of sialic acid (N-acetylneuraminic acid produced by Wako Pure Chemical Industries, Ltd. and having a product number of 011-26173) were each added in an amount of 10 μl, followed by culture in a CO2 incubator for 24 hours (37° C., 4.5% CO2). Cell proliferation was measured by the MTT assay method using a kit (Cell Counting Kit-8 produced by DOJINDO Corporation and having a product number of 347-07621).
# The cell proliferation rate was calculated at the respective additive concentrations of the test substance 1, with the value for no addition (0 mg/ml) of the test substance 1 being taken as 100.
# The cell proliferation rate was calculated at the respective additive concentrations of the reference standard of sialic acid, with the value for no addition (0 mg/ml) of the reference standard of sialic acid being taken as 100.
smiles,measurement,setting,value
"CC(=O)N[C@H]1[C@H]([C@H](O)[C@H](O)CO)OC(O)(C(=O)O)C[C@@H]1O (some centres unmarked) [Reference standard of sialic acid, N-acetylneuraminic acid]",IGF-1 concentration in peripheral blood,IGF-1,4.4 µg/mL
same,Cell proliferation rate,NIH3T3 cells; additive concentration 0.08 mg/ml,96
same,Cell proliferation rate,NIH3T3 cells; additive concentration 0.31 mg/ml,98
same,Cell proliferation rate,NIH3T3 cells; additive concentration 1.25 mg/ml,101
same,Cell proliferation rate,NIH3T3 cells; additive concentration 2.5 mg/ml,98
same,Cell proliferation rate,NIH3T3 cells; additive concentration 5.0 mg/ml,99
same,Cell proliferation rate,NIH3T3 cells; additive concentration 10.0 mg/ml,102
same,Change in cell proliferation rate (in words),NIH3T3 cells; additive concentrations up to 10.0 mg/ml,No change was recognized in the proliferation rate
